Measured values reported in patent US9447157B2, “Nitration shielding peptides and methods of use thereof” (Augusta University Research Institute, Inc., priority 2013, dated 2016).
Positions count from the first letter of the chain named.

Columns and labels:
PKG-1α [1] = target: T1, PKG-1α (Homo sapiens, UniProt Q13976, Y247F); assay: [3H]cGMP dissociation/exchange assay; format: binding; conditions: SIN-1 500 μM 30 min
T1 sequence (Q13976 2-671 Y247F): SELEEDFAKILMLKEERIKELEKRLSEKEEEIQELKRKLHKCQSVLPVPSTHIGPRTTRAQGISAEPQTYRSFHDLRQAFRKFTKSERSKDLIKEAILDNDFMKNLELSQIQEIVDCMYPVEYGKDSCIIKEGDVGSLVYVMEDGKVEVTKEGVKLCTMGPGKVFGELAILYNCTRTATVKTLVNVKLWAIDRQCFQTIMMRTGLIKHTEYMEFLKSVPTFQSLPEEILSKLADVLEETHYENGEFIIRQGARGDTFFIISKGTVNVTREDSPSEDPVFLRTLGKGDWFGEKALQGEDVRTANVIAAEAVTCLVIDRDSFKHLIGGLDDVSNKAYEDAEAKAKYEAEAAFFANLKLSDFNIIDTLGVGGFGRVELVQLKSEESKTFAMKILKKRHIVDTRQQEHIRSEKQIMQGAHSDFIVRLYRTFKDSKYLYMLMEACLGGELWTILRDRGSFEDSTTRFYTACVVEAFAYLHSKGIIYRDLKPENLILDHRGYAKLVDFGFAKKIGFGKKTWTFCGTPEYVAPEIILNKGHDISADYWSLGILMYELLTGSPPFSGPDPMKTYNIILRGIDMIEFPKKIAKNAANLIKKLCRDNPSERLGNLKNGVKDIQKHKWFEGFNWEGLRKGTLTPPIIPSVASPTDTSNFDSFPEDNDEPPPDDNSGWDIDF
Method: (§1) WT- and Y247F-PKG-1α were immunopurified, as described above then incubated for 60 min at room temperature with 3 ml of cGMP-binding assay mixture containing 3 μM [^3H]cGMP. This incubation time and dose has been previously experimentally determined to be adequate for the saturation of the cGMP-binding sites in PKG. After incubation, the samples were cooled to 4° C. and divided into 200 μl aliquots per tube. The addition of 100-fold excess unlabeled cGMP at time 0 sec (Bo) initiated the dissociation (exchange) of the bound [^3H]cGMP. The cGMP exchange in each tube was stopped at the appropriate time point by the addition of 2 ml of cold aqueous saturated (NH4)2SO4. The samples were filtered, washed, and the portion of bound [^3H]cGMP at any time point was determined, as described previously.

PKG-1α [2] = target: T2, PKG-1α (Homo sapiens, UniProt Q13976); assay: [3H]cGMP dissociation/exchange assay; format: binding; conditions: SIN-1 500 μM 30 min
T2 construct: transfected with an expression plasmid containing a full length WT-PKG-1α cDNA; made in house; host or cells: HEK-293T (methods); the results paragraph b527 says PASMC
T2 sequence (Q13976 2-671): T1 sequence (Q13976 2-671 Y247F) with F246Y
Method: as §1

PKG-1α [3] = assay: PKG activity in transfected HEK-293T cells; format: cell-based, human; conditions: SIN-1 500 μM 30 min
Method: To determine the role of tyrosine 247 and tyrosine 425 in mediating the nitration dependent inhibition of PKG-1α kinase activity, Y247F- and Y425F-PKG-1α mutants were generated and expressed in HEK-293T cells. HEK-293T cells were transiently transfected with expression plasmids containing WT-, Y247F-, or Y425F-PKG-1α for 48 h. Cells were also treated or not with SIN-1 (500 μM, 30 min). Protein extracts were immunoprecipitated using an antibody raised against PKG-1α and the level of nitrated PKG-1α determined by probing the membranes with an antiserum raised against 3-NT. The blots were then stripped and re-probed for PKG-1α to normalize for the efficiency of the immunoprecipitation.
Measurement of PKG Catalytic Activity Total PKG activity was determined using a non-radioactive immunoassay in cell lysates, according to the manufacturer's directions. […]
After incubation for 30 min at 30° C. to allow the phosphorylation of the bound substrate, an HRP conjugated anti-phosphothreonine specific antibody was added to convert a chromogenic substrate to a colorimetric substrate that was subsequently read spectrophotometrically at 450 nm. The change in absorbance reflected the relative activity of PKG in the sample. […] The kinetic constants were determined using nonlinear regression (curve fit) analysis (GraphPad Prism Software Inc).

[4] = tested on: Pulmonary artery smooth muscle cells (PASMC); assay: PASMC cell growth (cell count); format: cell-based, lamb; conditions: SIN-1 500 μM 48 h
Method: Pulmonary artery smooth muscle cells (PASMC) were grown on a 10 cm dish to 75% confluence, transfected with WT-PKG-1α or Y247F-PKG-1α cDNA using a Qiagen transfection kit, according to manufacturer's instructions, and incubated at 37° C. for 20 h. […] The cells were then trypsinized, seeded onto a 6-well plate at a density of 2.5×10^4 cells per well, and grown for an additional 4 h in serum-free DMEM growth medium containing 1% FBS and antibiotics. The cells were then treated with or without SIN-1 (500 μM) and allowed to grow at 37° C. in the incubator for an additional 48 h. The cellular proliferation was evaluated by counting the cells with a hemacytometer (Cascade Biologicals™, Portland, Oreg.) after the trypsinization of the PASMC monolayers.

## 3-morpholinosydnonimine N-ethylcarbamide [SIN-1]
PKG-1α [1]
  [3H]cGMP exchange/dissociation from Y247F mutant: but not from the Y247F mutant
PKG-1α [2]
  [3H]cGMP exchange/dissociation from WT-PKG-1α: enhanced
PKG-1α [3]; HEK-293T expressing WT- and Y425F-PKG-1α
  cGMP dependent PKG activity, WT- and Y425F-PKG-1α cells: attenuated
PKG-1α [3]; transfected HEK-293T
  cGMP-independent PKG activity: did not alter
[4]
  Proliferation, WT-PKG-1α transfected PASMC: stimulated
